Results published in ChEMBL document CHEMBL5291721, “A preclinical secondary pharmacology resource illuminates target-adverse drug reaction associations of marketed drugs” (Nat Commun, 2023).

How the values were obtained:
[1] = molecular target: T1, Corticotropin-releasing factor receptor 2 (Homo sapiens, UniProt Q13324)
T1 sequence (Q13324 whole entry): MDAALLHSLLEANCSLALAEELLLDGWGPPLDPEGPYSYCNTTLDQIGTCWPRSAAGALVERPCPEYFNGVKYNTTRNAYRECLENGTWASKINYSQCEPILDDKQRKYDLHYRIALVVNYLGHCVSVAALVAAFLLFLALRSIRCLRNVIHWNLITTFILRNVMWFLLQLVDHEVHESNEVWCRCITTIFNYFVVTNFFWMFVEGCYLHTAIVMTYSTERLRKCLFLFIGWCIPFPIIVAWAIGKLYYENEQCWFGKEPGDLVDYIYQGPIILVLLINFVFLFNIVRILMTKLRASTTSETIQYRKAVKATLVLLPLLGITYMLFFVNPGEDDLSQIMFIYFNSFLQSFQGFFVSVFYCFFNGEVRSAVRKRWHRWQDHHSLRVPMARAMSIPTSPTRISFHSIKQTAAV

[2] = molecular target: Glucagon receptor (Homo sapiens, UniProt P47871)
Sequence of Glucagon receptor (P47871 whole entry): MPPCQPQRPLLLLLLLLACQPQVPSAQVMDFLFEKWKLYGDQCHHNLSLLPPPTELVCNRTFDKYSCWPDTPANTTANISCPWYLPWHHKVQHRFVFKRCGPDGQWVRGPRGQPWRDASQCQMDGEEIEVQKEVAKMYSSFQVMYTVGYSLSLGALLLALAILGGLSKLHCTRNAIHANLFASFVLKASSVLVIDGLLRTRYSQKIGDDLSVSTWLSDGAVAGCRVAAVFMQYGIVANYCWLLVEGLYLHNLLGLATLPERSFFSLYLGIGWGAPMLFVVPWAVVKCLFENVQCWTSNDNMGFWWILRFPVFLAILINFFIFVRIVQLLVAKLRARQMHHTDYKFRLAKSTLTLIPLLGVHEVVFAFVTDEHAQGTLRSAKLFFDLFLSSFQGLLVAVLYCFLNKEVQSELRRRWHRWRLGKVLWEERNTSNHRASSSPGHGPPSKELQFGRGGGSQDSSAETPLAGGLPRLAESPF

[3] = molecular target: T2, Gastric inhibitory polypeptide receptor (Homo sapiens, UniProt P48546)
T2 sequence (P48546 whole entry): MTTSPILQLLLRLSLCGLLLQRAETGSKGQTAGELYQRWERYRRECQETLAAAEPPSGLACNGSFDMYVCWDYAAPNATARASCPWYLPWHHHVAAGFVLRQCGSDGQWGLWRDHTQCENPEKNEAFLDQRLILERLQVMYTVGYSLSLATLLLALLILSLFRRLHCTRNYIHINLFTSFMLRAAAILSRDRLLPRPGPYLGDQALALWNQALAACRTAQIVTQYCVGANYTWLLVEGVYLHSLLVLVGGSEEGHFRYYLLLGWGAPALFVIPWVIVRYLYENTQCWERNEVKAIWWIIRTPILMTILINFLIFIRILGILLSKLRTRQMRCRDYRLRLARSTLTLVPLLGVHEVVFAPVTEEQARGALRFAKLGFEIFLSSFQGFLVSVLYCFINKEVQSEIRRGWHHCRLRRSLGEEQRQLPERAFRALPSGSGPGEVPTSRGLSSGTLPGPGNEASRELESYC

[4] = molecular target: T3, Neuropeptide Y receptor type 2 (Homo sapiens, UniProt P49146)
T3 sequence (P49146 whole entry): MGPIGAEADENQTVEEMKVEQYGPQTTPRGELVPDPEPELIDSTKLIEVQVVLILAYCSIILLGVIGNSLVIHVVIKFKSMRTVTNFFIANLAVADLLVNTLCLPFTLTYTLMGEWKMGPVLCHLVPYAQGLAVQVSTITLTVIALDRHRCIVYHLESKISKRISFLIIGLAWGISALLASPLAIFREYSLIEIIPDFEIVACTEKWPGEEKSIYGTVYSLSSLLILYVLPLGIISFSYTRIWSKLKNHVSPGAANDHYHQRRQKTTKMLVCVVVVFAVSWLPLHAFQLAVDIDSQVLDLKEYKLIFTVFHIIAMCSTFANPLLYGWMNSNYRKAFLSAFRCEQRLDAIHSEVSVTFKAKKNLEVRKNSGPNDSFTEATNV

[5] = molecular target: T4, Alpha-2A adrenergic receptor (Homo sapiens, UniProt P08913)
T4 sequence (P08913 whole entry): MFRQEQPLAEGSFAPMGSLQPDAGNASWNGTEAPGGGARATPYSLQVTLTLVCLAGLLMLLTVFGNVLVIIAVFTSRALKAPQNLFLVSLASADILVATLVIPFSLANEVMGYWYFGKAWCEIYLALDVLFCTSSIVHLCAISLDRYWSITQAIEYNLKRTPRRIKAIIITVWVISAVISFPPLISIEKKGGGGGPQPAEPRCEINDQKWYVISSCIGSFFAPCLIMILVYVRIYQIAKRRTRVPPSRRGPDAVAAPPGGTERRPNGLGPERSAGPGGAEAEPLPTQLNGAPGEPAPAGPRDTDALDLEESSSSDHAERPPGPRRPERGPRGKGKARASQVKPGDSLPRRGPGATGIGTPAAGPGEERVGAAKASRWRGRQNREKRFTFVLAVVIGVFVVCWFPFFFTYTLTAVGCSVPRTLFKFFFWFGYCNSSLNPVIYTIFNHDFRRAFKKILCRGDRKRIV

[6] = molecular target: T5, Adenosine receptor A1 (Homo sapiens, UniProt P30542)
T5 sequence (P30542 whole entry): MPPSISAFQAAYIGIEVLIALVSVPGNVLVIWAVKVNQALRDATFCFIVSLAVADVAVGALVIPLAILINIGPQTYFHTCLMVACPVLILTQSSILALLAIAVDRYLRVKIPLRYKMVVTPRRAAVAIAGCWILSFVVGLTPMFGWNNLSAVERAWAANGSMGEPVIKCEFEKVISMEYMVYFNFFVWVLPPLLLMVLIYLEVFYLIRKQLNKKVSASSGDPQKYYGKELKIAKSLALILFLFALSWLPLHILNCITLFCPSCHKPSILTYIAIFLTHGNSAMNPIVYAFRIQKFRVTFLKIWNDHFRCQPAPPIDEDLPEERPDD

[7] = molecular target: Sodium-dependent serotonin transporter (Homo sapiens, UniProt P31645)
Sequence of Sodium-dependent serotonin transporter (P31645 whole entry): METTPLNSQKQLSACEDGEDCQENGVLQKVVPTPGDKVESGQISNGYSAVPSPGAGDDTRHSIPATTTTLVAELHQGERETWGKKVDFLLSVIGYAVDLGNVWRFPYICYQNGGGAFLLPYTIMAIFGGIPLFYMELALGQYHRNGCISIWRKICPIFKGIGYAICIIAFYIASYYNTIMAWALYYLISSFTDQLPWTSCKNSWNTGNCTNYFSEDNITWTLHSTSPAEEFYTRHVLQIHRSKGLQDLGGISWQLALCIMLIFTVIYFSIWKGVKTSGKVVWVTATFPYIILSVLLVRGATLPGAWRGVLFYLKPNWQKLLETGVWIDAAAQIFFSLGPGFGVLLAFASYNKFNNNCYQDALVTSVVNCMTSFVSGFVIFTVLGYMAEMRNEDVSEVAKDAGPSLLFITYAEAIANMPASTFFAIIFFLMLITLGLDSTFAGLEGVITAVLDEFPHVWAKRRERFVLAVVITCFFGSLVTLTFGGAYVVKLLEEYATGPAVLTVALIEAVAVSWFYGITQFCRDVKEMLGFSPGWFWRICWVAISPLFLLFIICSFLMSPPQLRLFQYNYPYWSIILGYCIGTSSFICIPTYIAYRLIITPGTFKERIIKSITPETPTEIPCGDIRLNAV

[8] = molecular target: T6, Peroxisome proliferator-activated receptor gamma (Homo sapiens, UniProt P37231); type: functional
T6 sequence (P37231 whole entry): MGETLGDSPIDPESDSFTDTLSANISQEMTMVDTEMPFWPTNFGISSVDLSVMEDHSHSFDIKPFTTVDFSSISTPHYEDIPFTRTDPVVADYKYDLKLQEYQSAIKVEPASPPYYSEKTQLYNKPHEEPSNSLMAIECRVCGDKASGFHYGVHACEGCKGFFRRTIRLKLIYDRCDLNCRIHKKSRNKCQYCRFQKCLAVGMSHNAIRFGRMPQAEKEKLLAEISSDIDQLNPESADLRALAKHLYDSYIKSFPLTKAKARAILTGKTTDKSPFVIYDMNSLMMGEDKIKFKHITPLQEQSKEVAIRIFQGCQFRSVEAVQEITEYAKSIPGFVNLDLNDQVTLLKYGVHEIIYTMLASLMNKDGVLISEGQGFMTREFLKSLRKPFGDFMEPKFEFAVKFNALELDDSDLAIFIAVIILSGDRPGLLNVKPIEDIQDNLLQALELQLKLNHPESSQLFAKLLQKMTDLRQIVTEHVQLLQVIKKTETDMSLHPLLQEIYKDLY

[9] = molecular target: Gamma-aminobutyric acid receptor subunit alpha-1/alpha-2/beta-2/gamma-2 (Homo sapiens, UniProt P14867+P18507+P47869+P47870); type: functional, cell-based
Sequence of Gamma-aminobutyric acid receptor subunit alpha-1/alpha-2/beta-2/gamma-2 (P14867 whole entry): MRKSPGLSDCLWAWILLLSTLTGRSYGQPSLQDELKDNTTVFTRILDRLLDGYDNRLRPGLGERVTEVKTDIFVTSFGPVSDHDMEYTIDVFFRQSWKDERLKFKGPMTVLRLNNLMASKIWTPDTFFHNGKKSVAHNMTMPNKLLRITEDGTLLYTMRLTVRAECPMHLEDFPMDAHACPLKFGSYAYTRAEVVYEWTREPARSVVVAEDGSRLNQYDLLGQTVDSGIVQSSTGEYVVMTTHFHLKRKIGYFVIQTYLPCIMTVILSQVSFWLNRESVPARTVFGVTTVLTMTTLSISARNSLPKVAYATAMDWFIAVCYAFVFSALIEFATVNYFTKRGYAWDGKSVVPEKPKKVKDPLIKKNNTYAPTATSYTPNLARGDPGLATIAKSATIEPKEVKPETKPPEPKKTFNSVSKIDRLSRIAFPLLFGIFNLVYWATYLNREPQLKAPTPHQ
Sequence of Gamma-aminobutyric acid receptor subunit alpha-1/alpha-2/beta-2/gamma-2 (P47870 whole entry): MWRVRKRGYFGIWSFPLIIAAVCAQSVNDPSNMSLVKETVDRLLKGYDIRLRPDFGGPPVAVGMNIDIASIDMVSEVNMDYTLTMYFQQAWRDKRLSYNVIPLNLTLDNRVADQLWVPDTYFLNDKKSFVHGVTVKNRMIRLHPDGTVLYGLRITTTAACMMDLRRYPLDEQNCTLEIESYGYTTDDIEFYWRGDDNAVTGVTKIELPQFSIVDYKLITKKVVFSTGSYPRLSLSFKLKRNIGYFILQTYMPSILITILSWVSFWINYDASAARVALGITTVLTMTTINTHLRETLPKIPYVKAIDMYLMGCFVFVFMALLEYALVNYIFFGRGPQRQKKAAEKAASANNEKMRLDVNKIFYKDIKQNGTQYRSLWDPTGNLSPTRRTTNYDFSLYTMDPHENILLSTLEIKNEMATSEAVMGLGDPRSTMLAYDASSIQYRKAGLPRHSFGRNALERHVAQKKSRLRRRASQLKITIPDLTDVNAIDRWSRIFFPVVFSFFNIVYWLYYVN
Sequence of Gamma-aminobutyric acid receptor subunit alpha-1/alpha-2/beta-2/gamma-2 (P18507 whole entry): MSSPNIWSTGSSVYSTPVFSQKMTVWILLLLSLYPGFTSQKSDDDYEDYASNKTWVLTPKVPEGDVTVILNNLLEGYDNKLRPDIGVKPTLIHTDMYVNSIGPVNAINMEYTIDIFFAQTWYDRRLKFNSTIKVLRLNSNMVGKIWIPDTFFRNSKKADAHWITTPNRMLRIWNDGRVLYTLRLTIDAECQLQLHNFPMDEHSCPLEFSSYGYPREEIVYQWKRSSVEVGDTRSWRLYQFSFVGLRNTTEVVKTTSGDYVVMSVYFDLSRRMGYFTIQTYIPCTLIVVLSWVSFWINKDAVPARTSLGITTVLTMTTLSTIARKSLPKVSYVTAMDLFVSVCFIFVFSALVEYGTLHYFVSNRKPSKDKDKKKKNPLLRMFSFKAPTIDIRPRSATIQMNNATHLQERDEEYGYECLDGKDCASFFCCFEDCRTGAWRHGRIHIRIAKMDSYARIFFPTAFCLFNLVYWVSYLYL
Sequence of Gamma-aminobutyric acid receptor subunit alpha-1/alpha-2/beta-2/gamma-2 (P47869 whole entry): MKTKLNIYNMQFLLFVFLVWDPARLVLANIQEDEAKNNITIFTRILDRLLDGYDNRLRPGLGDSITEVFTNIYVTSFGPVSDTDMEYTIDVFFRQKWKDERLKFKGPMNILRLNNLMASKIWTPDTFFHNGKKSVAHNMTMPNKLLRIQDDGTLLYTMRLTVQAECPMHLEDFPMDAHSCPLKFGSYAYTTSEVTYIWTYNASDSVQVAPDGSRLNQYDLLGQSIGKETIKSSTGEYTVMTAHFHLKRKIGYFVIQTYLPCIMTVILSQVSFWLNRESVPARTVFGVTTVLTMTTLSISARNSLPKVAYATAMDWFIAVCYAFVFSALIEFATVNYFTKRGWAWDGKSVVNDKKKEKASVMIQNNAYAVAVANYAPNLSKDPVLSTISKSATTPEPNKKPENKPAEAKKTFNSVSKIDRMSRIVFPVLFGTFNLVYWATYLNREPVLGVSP
Further: assay procedure not described here.

`CC(N)C(O)c1ccccc1` (centres undefined) [PHENYLPROPANOLAMINE] was tested, and the AC50 [1] was > 30 µM, the AC50 [2] was > 30 µM and the AC50 [3] was > 30 µM. For the same compound, the AC50 [4] was > 30 µM and the AC50 [5] was > 10 µM.
For `Cc1cnc(C(=O)NCCc2ccc(S(=O)(=O)NC(=O)NC3CCCCC3)cc2)cn1` [GLIPIZIDE], the AC50 [6] was > 30 µM, the AC50 [1] was > 30 µM and the AC50 [2] was > 30 µM. For the same compound, the AC50 [3] was > 30 µM, the AC50 [4] was > 30 µM and the AC50 [5] was > 10 µM.
With `CCOC(=O)C1=C(C)NC(C)=C(C(=O)OC)C1c1cccc([N+](=O)[O-])c1` (centres undefined) [NITRENDIPINE] the AC50 [1] was > 30 µM, the AC50 [2] was > 30 µM and the AC50 [3] was > 30 µM. The AC50 [4] was > 30 µM and the AC50 [5] was > 10 µM.
In the case of `OC1(c2ccc(Cl)cc2)c2ccccc2C2=NCCN21` (centres undefined) [MAZINDOL], the AC50 [1] is reported as > 30 µM, the AC50 [2] is reported as > 30 µM and the AC50 [3] is reported as > 30 µM. For the same compound, the AC50 [4] was > 30 µM and the AC50 [5] was > 10 µM.
With `COc1cc2c(cc1OC)CC(=O)N(CCCN(C)C[C@H]1Cc3cc(OC)c(OC)cc31)CC2` [IVABRADINE] the AC50 [7] was 11.9 µM.
For `CC(C)NCC(O)c1ccc(O)c(O)c1` (centres undefined) [ISOPROTERENOL], the AC50 [1] was > 30 µM, the AC50 [2] was > 30 µM and the AC50 [3] was > 30 µM. The AC50 [4] was > 30 µM.
For `CC(N)Cc1ccc(O)cc1` (centres undefined) [HYDROXYAMPHETAMINE], the AC50 [7] was > 30 µM.
`CCN(CCCc1ccccc1)CCCc1ccccc1` [ALVERINE] gave an AC50 [7] of 1.7 µM.
In the case of `CC(C)N(CCNC(=O)CN1CCCC1=O)C(C)C`, the AC50 [7] is reported as > 30 µM.
With `CC(C)COCC(CN(Cc1ccccc1)c1ccccc1)N1CCCC1` (centres undefined) [BEPRIDIL] the AC50 [1] was > 30 µM, the AC50 [2] was > 30 µM and the AC50 [3] was > 30 µM. For the same compound, the AC50 [4] was > 30 µM and the AC50 [8] was > 30 µM.
With `Cc1cc(NC(=O)C2=C(O)c3ccccc3S(=O)(=O)N2C)no1` [ISOXICAM] the AC50 [7] was > 30 µM.
With `Cc1cc(C(C)(C)C)cc(C)c1CC1=NCCN1` [XYLOMETAZOLINE] the AC50 [9] was > 30 µM and the AC50 [5] was 0.03 µM.
For `O=C(O)c1cn(C2CC2)c2cc(N3CCNCC3)c(F)cc2c1=O` [CIPROFLOXACIN], the AC50 [6] was > 30 µM, the AC50 [1] was > 30 µM and the AC50 [2] was > 30 µM. For the same compound, the AC50 [3] was > 30 µM and the AC50 [4] was > 30 µM.
With `CCN(CC)C(=S)S` [DITIOCARB] the AC50 [6] was > 30 µM and the AC50 [7] was > 30 µM.
For `[H]/N=C(/N)N/C(=N/[H])NCCc1ccccc1` [PHENFORMIN], the AC50 [1] was > 30 µM, the AC50 [2] was > 30 µM and the AC50 [3] was > 30 µM. The AC50 [4] was > 30 µM and the AC50 [5] was 6.71 µM.
For `NC(=O)OCC(O)COc1ccc(Cl)cc1` (centres undefined) [CHLORPHENESIN CARBAMATE], the AC50 [7] was > 30 µM.
`CNC1=Nc2ccc(Cl)cc2C(c2ccccc2)=[N+]([O-])C1` [CHLORDIAZEPOXIDE] was tested, and the AC50 [5] was > 10 µM.
For `CN(C)CCOC(c1ccccc1)c1ccc(Br)cc1` (centres undefined) [BROMODIPHENHYDRAMINE], the AC50 [7] was 0.207 µM.
In the case of `CCC(C)C1(CC)C(=O)NC(=O)NC1=O` (centres undefined) [BUTABARBITAL], the AC50 [8] is reported as > 30 µM.
With `CCC(=O)O[C@]1(C(=O)CCl)[C@@H](C)C[C@H]2[C@@H]3C[C@H](F)C4=CC(=O)C=C[C@]4(C)[C@@]3(F)[C@@H](O)C[C@@]21C` [HALOBETASOL PROPIONATE] the AC50 [7] was > 30 µM.
